What was measured:
[1] = tested on: individuals with newly diagnosed, drug-naïve PD; assay: NADPARK phase I trial: tolerability of NR therapy (1000 mg per day, 30 days) in PD; type: in vivo, human
Protocol: The present inventors completed a phase I randomized, double blinded trial, aiming to assess the tolerability, cerebral bioavailability and molecular effects of NR therapy in PD. A total of 30 individuals with newly diagnosed, drug-naïve PD were randomized to NR 500 mg×2/day or placebo for 30 days (Cell Metab. 2022 Mar. 1; 34(3):396-407.e6).
NR is well-tolerated. […] NR achieves brain penetration. […] While a significant NR-induced increase in cerebral NAD levels was detected at the group level, this effect was not uniform at the individual level.

cerebral NAD levels = assay: NADPARK: cerebral NAD levels by 31P-MRS; type: in vivo, human
Protocol: A-C: 31P-MRS was performed at baseline (v1) and after 30 days of treatment (v2). A: exemplary data from one subject showing voxel position. Spectra were acquired for each grid position. B (top): average processed spectra from multiple voxels (black) and the model fit (red). B (bottom): the model fit is composed of the convolution of all spectral contributions of a simulated dataset fitted to the experimental data. […] PCr: phosphocreatine. C: comparison of cerebral NAD levels in the placebo (PL) and NR groups at baseline (v1) and visit-2 (v2). […] Individual subjects are indicated by dots. Connecting lines show the change between v1 and v2. The black points and lines show the mean of each group. […] D: FDG-PET data from all subjects in the NR-group, showing the mean NR-Related Pattern (NRRP, top panel), PD-related pattern (PRDP, middle panel), and the overlap of the two (bottom panel). NR partially ameliorates the striatal and thalamic hypermetabolism of PD. E: Between visit changes showing increased NRRP expression in the NR versus the placebo group. […]
NR is well-tolerated. […] While a significant NR-induced increase in cerebral NAD levels was detected at the group level, this effect was not uniform at the individual level.
Cerebral NAD levels, such as NAD/α-ATP-α molar ratios, can be calculated by using ^31P spectroscopy data from magnetic resonance imaging and spectroscopy (MRI/S) e.g., as shown in FIG. 1B. […] For instance, an anatomical T1-weighted image with the following sequence parameters can be acquired to aid positioning of the ^31P-imaging slab: MPRAGE 3D T1-weighted sagittal volume, TE/TR/TI=2.26 ms/2.4 s/900 ms, acquisition matrix=256×256×192, FOV=256×256×192 mm3, 200 Hz/px readout bandwidth, flip angle=8 degrees and total acquisition duration of 5.6 minutes. ^31P spectroscopy data can then be acquired using a 3D chemical shift imaging (CSI) FID sequence with WALTZ4 1H decoupling and continuous wave nuclear Overhauser effect (NOE) enhancement (Peeters et al., NMR Biomed. 2019; 34: e4169). […]

NC(=O)c1ccc[n+]([C@@H]2O[C@H](CO)[C@@H](O)[C@H]2O)c1 [NR, nicotinamide riboside]
serum homocysteine levels ([1]; NR 1000 mg daily, Phase I study): no change in serum homocysteine levels | compliance, tolerability, toxicity ([1]; NR 1000 mg per day, 30 days, PD): excellent compliance, tolerability and no signs of toxicity or adverse side effects | increase in cerebral NAD-levels (cerebral NAD levels; 1000 mg NR, treatment group, mean (SD=20%)): 38% | patients with no evidence of cerebral NAD response (cerebral NAD levels; NR 1000 mg per day, 30 days): three | change in cerebral NAD levels (31P-MRS) (cerebral NAD levels; NR 1000 mg per day, baseline vs 30 days, NR group): highly significant (paired t-test: P=0.016) increase in cerebral NAD levels
